# Patent US5290796A, “Substituted 3-piperidinealkanamines and alkanamides and compositions and method of use thereof” (Sterling Winthrop Inc., priority 1992, dated 1994)
# What was measured:
# [1] = biological target: T1, sigma receptors (Cavia porcellus, UniProt Q60492); experiment: sigma receptor binding, [^3 H](+)-pentazocine; design: species or system guinea pig; conditions: approximately 0.5 nM radioligand, 37° C., 150 min; for inhibition at 10 µM: percent (%) inhibition of binding at 10 μM, guinea pig brain membranes; for Ki: mean of at least two separate determinations performed in triplicate
# T1 construct: Brain tissue was prepared from male Hartley guinea pigs; tissue Hazelton Labs; host or cells: brain membranes of male Hartley guinea pigs
# T1 sequence (Q60492 whole entry): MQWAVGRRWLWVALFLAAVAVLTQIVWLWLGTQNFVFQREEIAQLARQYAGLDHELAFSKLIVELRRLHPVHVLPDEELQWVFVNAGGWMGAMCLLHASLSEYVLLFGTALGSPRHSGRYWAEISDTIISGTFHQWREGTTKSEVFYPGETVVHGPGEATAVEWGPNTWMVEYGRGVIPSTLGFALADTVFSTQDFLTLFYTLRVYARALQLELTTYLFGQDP
# Method: (§1) Brain tissue was prepared from male Hartley guinea pigs (Hazelton Labs, Denver, Pa.) which were anesthetized with CO2 and sacrificed by decapitation. All animal care and use procedures were in accord with the "Guide for the Care and Use of Laboratory Animals" (NIH Publ. No. 86-23, 1985). Homogenization was performed in 10 volumes (wt/vol) of 0.32M sucrose with a Brinkmann Polytron at setting 5, 30 sec. The homogenate was centrifuged at 900 x g for 10 min at 4° C., and the supernatant was collected and centrifuged at 22,000 x g for 20 min at 4° C. The pellet was resuspended in 10 volumes of Tris-HCl buffer (50 mM, pH 7.4), incubated at 37° C. for 30 min, and centrifuged at 22,000 x g for 20 min at 4° C. Following this, the pellet was resuspended in Tris buffer and frozen in 5-10 mL aliquots corresponding to a tissue concentration of 100 mg/mL, at -70° C. Binding characteristics of the membranes were stable for at least one month when stored at -70° C.
# On the day of the assay, membrane aliquots were thawed, resuspended in fresh Tris-HCl buffer and stored on ice until use. Each assay tube contained 100 μL of [^3 H]-(+)-pentazocine at a final concentration of approximately 0.5 nM or 100 μL of [^3 H]di(2-tolyl)guanidine (DTG) at a final concentration of approximately 4 nM, 100 μL of various concentrations of the compounds of interest, 500 μL of the tissue suspension and 300 μL of buffer to a final assay volume of 1 mL and a final tissue concentration of approximately 8 mg/tube, corresponding to approximately 0.15 mg protein/tube. Non-specific binding was defined by addition of a final concentration of 1 μM haloperidol to blank tubes for [^3 H](+)-pentazocine assay or by addition of a final concentration of 10 μM haloperidol to blank tubes for [^3 H]DTG assay. All tubes were incubated at 37° C. for 150 min in the [^3 H](+)-pentazocine assay or at 25° C. for 90 min in the [^3 H]DTG assay before termination of the reaction by rapid filtration over Whatman GF/B glass fiber filters that were presoaked in a solution of 0.5% polyethyleneimine for at least 1 hr prior to use. Filters were washed with three 4 ml volumes of cold Tris-HCl buffer.
# Following addition of scintillation cocktail, samples were allowed to equilibrate for at least 4 hr. The amount of bound radioactivity was determined by liquid scintillation spectrometry using a Beckman LS 5000 TA liquid scintillation counter with an efficiency for tritium of approximately 60%. The results are reported as a percent (%) inhibition of binding at 10 μM.
# (§2) Scatchard parameters and inhibition constants (Ki values) for the binding of test compounds were also calculated using the EBDA/LIGAND program (McPherson, J Pharmacol. Meth. 1985, 14, 213-228), purchased from Elsevier/Biosoft, Inc. The Ki values are expressed as the mean of at least two separate determinations performed in triplicate.
# [2] = biological target: sigma receptors; experiment: sigma receptor binding, [^3 H]di(2-tolyl)guanidine (DTG); design: species or system guinea pig; conditions: approximately 4 nM radioligand, 25° C., 90 min
# Method: as §1, with “Following this, the pellet was resuspended in Tris buffer and frozen in 5-10 mL aliquots corresponding to a tissue concentration of 100 mg/mL, at -70° C. Binding characteristics of the membranes were stable for at least one month when stored at -70° C.” left out
# Following addition of scintillation cocktail, samples were allowed to equilibrate for at least 4 hr. The amount of bound radioactivity was determined by liquid scintillation spectrometry using a Beckman LS 5000 TA liquid scintillation counter with an efficiency for tritium of approximately 60%. […]
# as §2
inhibition at 10 µM [1],Compound,further results
90%,"C[C@@H]1CCN(C)[C@@H](C)[C@]1(C)CCN(C)C1CCCC1 (relative stereo) [Example 3, N-cyclopentyl-N-1,2,3,4-pentamethyl-3-piperidineethanamine]",–
–,"C[C@@H]1CCN(C)[C@@H](C)[C@]1(C)CCN1CCCC1 (relative stereo) [Example 10, 1,2,3,4-tetramethyl-3-[2-(1-pyrrolidinyl)ethyl]piperidine]",Ki [1]: 5.98 µM; Ki ([2]; mean of at least two separate determinations performed in triplicate): 7.51 µM
69%,"CCOC(=O)NCC[C@]1(C)[C@H](C)CCN(C)[C@H]1C (relative stereo) [Example 6, ethyl-2-(1,2,3,4-tetramethyl-3-piperidinyl)ethyl carbamate]",–
79%,"C[C@@H]1CCN(C)[C@@H](C)[C@]1(C)CCNC(=O)c1ccsc1 (relative stereo) [Example 5, N-[2-(1,2,3,4-tetramethyl-3-piperidinyl)-ethyl]-3-thiophenecarboxamide]",–
57%,"C[C@@H]1CCN(C)[C@@H](C)[C@]1(C)CCNC1CCCC1 (relative stereo) [Example 1c, N-cyclopentyl-1,2,3,4-tetramethyl-3-piperidineethanamine]",–
83%,"C[C@@H]1CCN(Cc2ccccc2)[C@@H](C)[C@]1(C)CCN (relative stereo) [Example 2b, 2,3,4-trimethyl-1-(phenylmethyl)-3-piperidineethanamine]",–
–,"C[C@@H]1CCN(C)[C@@H](C)[C@]1(C)CCN(C)C (relative stereo) [Example 4, N,N-1,2,3,4-hexamethyl-3-piperidineethanamine]","Ki [1]: 23.9 µM; [^3 H]DTG Percent Inhibition ([2]; percent (%) inhibition of binding at 10 μM, guinea pig brain membranes): 20%"

Compound,inhibition at 10 µM [1],further results
"C[C@@H]1CCN(C)[C@@H](C)[C@]1(C)CCN(C)C(=O)Cc1ccc(Cl)c(Cl)c1 (relative stereo) [Example 7b, 3,4-dichloro-N-methyl-N-[2-(1,2,3,4-tetramethyl-3-piperidinyl)ethyl]benzeneacetamide]",94%,–
